Source: the supplement of paper PMC11208160

Test: recombinant UMI read abundance after kanamycin selection (control-corrected) (log10(CPM+1)); higher = more efficient recombination; extreme values may be limits of the assay; sequences stand for … in AGTGCAGAGAAAATCGGCCAGTTTTCTCTGCCTGCAGTCCGCATGCCGTGGGACCCCTTGGGTTCTAACCTGTTGCCTAGATTTATGCAGCGGACTGCCTTTCTCCCAAAGTGATAAACCGG…AGGTTGGTTTCACT; site = the 11-nt donor
How it was run: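 Sequencing read counts were converted to CPM, averaged over two replicates and scaled by control-derived factors. Results are given as log10(CPM+1). The reads covered the donor–target junction of recombinant UMIs from a pooled Escherichia coli screen of donor and donor-binding-loop pairs for the IS621 bridge recombinase.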
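Note: IS621 bridge recombinase in Escherichia coli cells against a fixed T5 target plasmid.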

| Sequence | recombinant UMI read abundance (log10) |
| --- | --- |
| GAATCTCCATGGACCGGTTTTCCCGGTAATCCGTATTTGAA (site GAATCTCCTTT) | 0.611 |
| GAATGCACATGGACCGGTTTTCCCGGTAATCCGTATTTGTA (site GAATGCACTTA) | 1.87 |
| GAATGCACATGGACCGGTTTTCCCGGTAATCCGTATTTGTA (site GCATGCACTTA) | 0.691 |
| GAATGCACATGGACCGGTTTTCCCGGTAATCCGTATTTGTA (site GGATGCACTTA) | 0.585 |
| GAATGCACATGGACCGGTTTTCCCGGTAATCCGTATTTGTA (site GTATGCACTTA) | 0.36 |
| GAATGGACATGGACCGGTTTTCCCGGTAATCCGTATTTGAC (site GAATGGACTGT) | 2.81 |
| GAATGGACATGGACCGGTTTTCCCGGTAATCCGTATTTGAC (site GACTGGACTGT) | 0 |
| GAATGGACATGGACCGGTTTTCCCGGTAATCCGTATTTGAC (site GAGTGGACTGT) | 0 |
| GAATGGACATGGACCGGTTTTCCCGGTAATCCGTATTTGAC (site GATTGGACTGT) | 0.743 |
| GAATGGACATGGACCGGTTTTCCCGGTAATCCGTATTTGCA (site GAATGGACTTG) | 2.46 |
| GAATGGACATGGACCGGTTTTCCCGGTAATCCGTATTTGCA (site GAATGGCCTTG) | 0.483 |
| GAATGGACATGGACCGGTTTTCCCGGTAATCCGTATTTGCA (site GAATGGGCTTG) | 2.41 |
| GAATGGACATGGACCGGTTTTCCCGGTAATCCGTATTTGCA (site GAATGGTCTTG) | 1.59 |
| GAATGGCCATGGACCGGTTTTCCCGGTAATCCGTATTTGAA (site GAATGGCCTTA) | 0.00888 |
| GAATGGCCATGGACCGGTTTTCCCGGTAATCCGTATTTGAA (site GAATGGCCTTC) | 0 |
| GAATGGCCATGGACCGGTTTTCCCGGTAATCCGTATTTGAA (site GAATGGCCTTG) | 0.0104 |

| Sequence | recombinant UMI read abundance (log10) |
| --- | --- |
| GAATGGCCATGGACCGGTTTTCCCGGTAATCCGTATTTGAA (site GAATGGCCTTT) | 0.0109 |
| GAATGGTCATGGACCGGTTTTCCCGGTAATCCGTATTTGCA (site GAATGGACTTG) | 0.0076 |
| GAATGGTCATGGACCGGTTTTCCCGGTAATCCGTATTTGCA (site GAATGGCCTTG) | 0 |
| GAATGGTCATGGACCGGTTTTCCCGGTAATCCGTATTTGCA (site GAATGGGCTTG) | 0.00395 |
| GAATGGTCATGGACCGGTTTTCCCGGTAATCCGTATTTGCA (site GAATGGTCTTG) | 2.38 |
| GAATTCCCATGGACCGGTTTTCCCGGTAATCCGTATTTGTA (site GAATTCCCTTA) | 0.666 |
| GAATTGACATGGACCGGTTTTCCCGGTAATCCGTATTTGAT (site GAATTGACTAT) | 1.37 |
| GAATTGCCATGGACCGGTTTTCCCGGTAATCCGTATTTGCA (site GAATAGCCTTG) | 0 |
| GAATTGCCATGGACCGGTTTTCCCGGTAATCCGTATTTGCA (site GAATCGCCTTG) | 0 |
| GAATTGCCATGGACCGGTTTTCCCGGTAATCCGTATTTGCA (site GAATGGCCTTG) | 0.696 |
| GAATTGCCATGGACCGGTTTTCCCGGTAATCCGTATTTGCA (site GAATTGCCTTG) | 0 |
| GACAAATCATGGACCGGTTTTCCCGGTAATCCGTATTTGGT (site GACAAAACTAC) | 0 |
| GACAAATCATGGACCGGTTTTCCCGGTAATCCGTATTTGGT (site GACAAACCTAC) | 0 |
| GACAAATCATGGACCGGTTTTCCCGGTAATCCGTATTTGGT (site GACAAAGCTAC) | 0.224 |
| GACAAATCATGGACCGGTTTTCCCGGTAATCCGTATTTGGT (site GACAAATCTAC) | 0.59 |
| GACAATCCATGGACCGGTTTTCCCGGTAATCCGTATTTGGT (site GACAAACCTAC) | 0 |
